Reference: patent EP1019392B1, “TRICYCLIC AMIDES USEFUL FOR INHIBITION OF G-PROTEIN FUNCTION AND FOR TREATMENT OF PROLIFERATIVE DISEASES” (SCHERING CORPORATION, priority 1995, dated 1997)
Several values for one entry are separate records, joined by “and”; a condition that tells them apart may be missing. Equal values may be shown once. Read-outs that look alike come from different tables or passages of the source.

Legend:
[1] = molecular target: T1, farnesyl protein transferase (FPT) (Rattus norvegicus, UniProt Q02293+Q04631); assay: In vitro enzyme assay: inhibition of farnesyl protein transferase (transfer of [3H]farnesyl to Ras-CVLS); assay type: biochemical
T1 construct: were partially purified from rat brain by ammonium sulfate fractionation followed by Q-Sepharose; from tissue; host or cells: rat brain

[2] = tested on: DLD-1 (human colon carcinoma cells, ATCC # CCL 221); assay: In Vivo Anti-Tumor Studies, subcutaneous DLD-1 tumors; parameters: species or system athymic nu/nu female mice; settings: Mus musculus, DLD-1, po, QID, 4 weeks, range over the listed compounds; for inhibition in vivo at 10 mg/kg: 10 mg/kg p.o.; for inhibition in vivo at 50 mg/kg: 50 mg/kg p.o.
Description: Tumor cells (5 X 10^5 to 8 X 10^6) of DLD-1 (human colon carcinoma cells, ATCC # CCL 221) are innolculated subcutaneously into the flank of 5-6 week o;d athymic nu/nu female mice.

[3] = tested on: T24-BAG4 human bladder carcinoma cells expressing an activated H-ras gene; assay: Cell Mat Assay, T24 tumor cells; assay type: cell-based; settings: Homo sapiens, read-out: Tumor (T-24) IC50
Human tumor cells = assay: Soft Agar Assay (anchorage-independent growth); assay type: cell-based; settings: range over 5 tumor cell lines (K ras NIH 3T3, H ras NIH 3T3, HTB 177, A549, HTB 175), read-out: IC50 for each cell line
[4] = tested on: Ras-CVLL in COS monkey kidney cells; assay: COS cell assay: geranylgeranylation of Ras-CVLL (Western blot); assay type: cell-based
[5] = Table 1, partially purified rat brain FPT, Ras-CVLS, read-out: FPT IC50
[6] = Table 2, comparison with GGPT, read-out: ENZYME INHIBITION FPT IC50
[7] = FPT IC50, Table 1, partially purified rat brain FPT, Ras-CVLS

| IC50 (Human tumor cells) [nM] | Structure (SMILES) | IC50 [1, 5] | IC50 [1, 6] | inhibition in vivo at 10 mg/kg [2] [%] | inhibition in vivo at 50 mg/kg [2] [%] | IC50 [3] [nM] | did not block the geranylgeranylation of Ras-CVLL at concentrations up to [4] [µM] | IC50 [1, 7] |
| --- | --- | --- | --- | --- | --- | --- | --- | --- |
|  | O=C(Cc1cc[n+]([O-])cc1)N1CCC(=C2c3ncc(Br)cc3CCc3cc(Cl)cc(Br)c32)CC1 (racemic) [Example 7] | 12 nM | 12 nM | 7 to 50 | 35.4 to 83 | < 1600 |  |  |
|  | NC(=O)N1CCC(CC(=O)N2CCC(C3c4ccc(Cl)c(Br)c4CCc4cc(Br)cnc43)CC2)CC1 (single isomer, unassigned) [Example 13] | 5 nM | 5 nM | 7 to 50 | 35.4 to 83 | < 1600 |  |  |
|  | O=C(Cc1cc[n+]([O-])cc1)N1CCC(C2c3ccc(Cl)c(Br)c3CCc3cc(Br)cnc32)CC1 (single isomer, unassigned) [Example 14A] | 2.6 nM | 2.6 nM | 7 to 50 | 35.4 to 83 | < 1600 |  |  |
| 175 to 800 | NC(=O)N1CCC(CC(=O)N2CCC(C3c4ncc(Br)cc4CCc4cc(Cl)cc(Cl)c43)CC2)CC1 (single isomer, unassigned) [Example 18] | 3.1 nM | 3.1 nM | 7 to 50 | 35.4 to 83 |  |  |  |
|  | O=C(Cc1cc[n+]([O-])cc1)N1CCC(=C2c3ccc(Cl)c(Br)c3CCc3cc(Br)cnc32)CC1 [Example 2] | 10 nM and 16 nM | 10 nM and 16 nM | 7 to 50 | 35.4 to 83 | < 1600 | > 33 |  |
|  | O=C(Cc1cc[n+]([O-])cc1)N1CCN([C@H]2c3ccc(Cl)c(Br)c3CCc3cc(Br)cnc32)CC1 [Example 5] | 2.3 nM | 2.3 nM | 7 to 50 | 35.4 to 83 | < 1600 |  |  |
|  | O=C(Cc1cc[n+]([O-])cc1)N1CCC([C@H]2c3ncc(Br)cc3CCc3cc(Cl)cc(Br)c32)CC1 [Example 9] | 1.3 nM | 1.3 nM | 7 to 50 | 35.4 to 83 | < 1600 |  |  |
|  | O=C(Cc1cc[n+]([O-])cc1)N1CCN([C@H]2c3ncc(Br)cc3CCc3cc(Cl)cc(Br)c32)CC1 [Example 11A] | 1.8 nM and 2.1 nM | 1.8 nM and 2.1 nM | 7 to 50 | 35.4 to 83 | < 1600 |  |  |
|  | O=C(Cc1cc[n+]([O-])cc1)N1CCN([C@@H]2c3ccc(Cl)cc3CCc3cc(Br)cnc32)CC1 [Example 16A] |  |  |  |  |  |  | 32 nM and 26 nM |
|  | O=C(Cc1cc[n+]([O-])cc1)N1CCN([C@H]2c3ccc(Cl)cc3CCc3cc(Br)cnc32)CC1 [Example 16B] |  |  | 7 to 50 | 35.4 to 83 | < 1600 |  | 38 nM and 23 nM |
